Test results from patent US8507493B2 (AbbVie Inc., priority 2009, dated 2013).

Target: T1, human 11β-HSD1 (Homo sapiens, UniProt P28845)
T1 construct: truncated (24-287aa) human 11β-HSD1 enzyme; made in house; host or cells: E. coli (lysate, not purified)
Assay: Human 11β-HSD1 enzymatic SPA assay
Format: biochemical
Conditions: truncated (24-287aa) human 11β-HSD1, apparent Ki from IC50 by Cheng-Prusoff
Protocol: The ability of test compounds to inhibit human 11β-HSD1 enzymatic activity in vitro was evaluated in a Scintillation Proximity Assay (SPA). Tritiated-cortisone substrate, NADPH cofactor and titrated compound were incubated with truncated (24-287aa) human 11β-HSD1 enzyme at room temperature to allow the conversion to cortisol to occur. The reaction was stopped by adding a non-specific 11β-HSD inhibitor, glycyrrhetinic acid. The tritiated cortisol was captured by a mixture of an anti-cortisol monoclonal antibody and SPA beads coated with anti-mouse antibodies. The reaction plate was shaken at room temperature and the radiolabel bound to SPA beads was then measured on a scintillation counter. The 11β-HSD1 assay was carried out in 96-well microtiter plates in a total volume of […]. To start the assay, 188 μL of master mix which contained 75 nM ^3H-cortisone, 100 nM cortisone and 181 μM NADPH was added to the wells. In order to drive the reaction in the 11β-reductase direction, 1 mM glucose-6-phosphate (G-6-P) and 1 U/mL G-6-P dehydrogenase were also added as a NADPH generating system. Solid compound was dissolved in dimethyl sulfoxide to make a 10 mM stock followed by a subsequent 10-fold serial dilution with dimethyl sulfoxide. Each compound solution in dimethyl sulfoxide was 10-fold diluted in Tris/EDTA buffer (pH 7.4). 22 μL of titrated compound were then added in duplicate to the substrate. Reactions were initiated by the addition of 10 μL of 0.1 mg/mL E. coli lysates overexpressing 11β-HSD1 enzyme. After shaking and incubating plates for 30 minutes at room temperature, reactions were stopped by adding 10 μL of 1 mM glycyrrhetinic acid. The product, tritiated cortisol, was captured by adding 10 μL of 1 μM monoclonal mouse anti-cortisol antibodies and 50 μL of SPA beads coated with anti-mouse antibodies. After shaking for 30 minutes, plates were read in a Microbeta scintillation counter. Percent inhibition was calculated based on the background and the maximal signal. Wells that contained substrate without compound or enzyme were used as the background, while the wells that contained substrate and enzyme without any compound were considered as maximal signal. Percent of inhibition of each compound was calculated relative to the maximal signal and IC50 curves were generated. Assuming competitive inhibition the Cheng-Prusoff equation was used to calculate apparent Ki values from the IC50 values. This assay was applied to 11β-HSD2 as well, whereby 6 nM tritiated cortisol and 250 uM NAD^+ were used as substrate and cofactor, respectively.

T1 sequence (P28845 24-287): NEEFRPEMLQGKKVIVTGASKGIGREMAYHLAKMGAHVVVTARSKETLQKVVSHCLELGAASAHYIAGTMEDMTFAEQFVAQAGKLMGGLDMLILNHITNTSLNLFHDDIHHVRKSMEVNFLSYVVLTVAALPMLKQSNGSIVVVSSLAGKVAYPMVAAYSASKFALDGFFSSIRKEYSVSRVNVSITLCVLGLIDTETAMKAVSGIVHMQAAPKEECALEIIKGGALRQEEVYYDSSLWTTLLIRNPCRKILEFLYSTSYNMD

In the case of `COc1ccc(Cl)cc1C(=NC#N)N[C@@H]1[C@@H]2C[C@@H]3C[C@H]1C[C@@](O)(C3)C2` [Example 93, 5-chloro-N′-cyano-N-[(E)-5-hydroxyadamantan-2-yl]-2-methoxybenzenecarboximidamide], the Ki is reported as over 1000 nM.
`COC(=O)C12CC3CC(C1)C(NC(=NC#N)C(C)(C)N1CC4CC(c5ccc(Cl)cc5)C4C1)C(C3)C2` (stereo not drawn) [Example 48, methyl(E)-4-({(1E)-2-[(1R*,5S*,6R*)-6-(4-chlorophenyl)-3-azabicyclo[3.2.0]hept-3-yl]-N-cyano-2-methylpropanimidoyl}amino)adamantane-1-carboxylate] showed a Ki of 100 to 1000 nM.
`CC(C)(Oc1ccc(Cl)cc1F)C(=NC#N)NC1CCCCCCC1` [Example 61, 2-(4-chloro-2-fluorophenoxy)-N′-cyano-N-cyclooctyl-2-methylpropanimidamide] was tested, and the Ki was 100 to 1000 nM.
For `CC(C)(Oc1ccc(F)cc1F)C(=NC#N)NC1CCCCCCC1` [Example 65, N′-cyano-N-cyclooctyl-2-(2,4-difluorophenoxy)-2-methylpropanimidamide], the Ki was 100 to 1000 nM.
In the case of `CC(C)(Oc1ccc(Cl)cc1)/C(=N\C#N)N[C@@H]1[C@@H]2C[C@@H]3C[C@H]1C[C@@](C(=O)O)(C3)C2` [Example 36, (E)-4-{[(1E)-2-(4-Chlorophenoxy)-N-cyano-2-methylpropanimidoyl]amino}adamantane-1-carboxylic acid], the Ki is reported as 100 to 1000 nM.
Compound `CC(C)(Oc1ccccc1)C(=NC#N)NC12CCC(C#N)(CC1)CC2` [Example 84, N′-cyano-N-(4-cyanobicyclo[2.2.2]oct-1-yl)-2-methyl-2-phenoxypropanimidamide] has a Ki of 100 to 1000 nM.
Compound `N#CN=C(NC1C2CC3CC1CC(O)(C3)C2)C1(Oc2cccc(Cl)c2)CCC1` (centres unmarked) [Example 15, 1-(3-Chlorophenoxy)-N′-cyano-N-[(E)-5-hydroxy-2-adamantyl]cyclobutane carboximidamide] has a Ki of 100 to 1000 nM.
`N#CN=C(Cc1ccc(F)cc1F)NC1C2CC3CC1CC(O)(C3)C2` (centres unmarked) [Example 4, (1E)-N′-Cyano-2-(2,4-difluorophenyl)-N-[(E)-5-hydroxy-2-adamantyl]ethanimidamide] gave a Ki of over 1000 nM.
Compound `CC(C)(Oc1ccc(F)cc1F)C(=NC#N)NC1C2CC3CC1CC(S(C)(=O)=O)(C3)C2` (centres unmarked) [Example 45, (1E)-N′-cyano-2-(2,4-difluorophenoxy)-2-methyl-N-[(E)-5-(methylsulfonyl)adamantan-2-yl]propanimidamide] has a Ki of at most 10 nM.
With `CC(C)(Oc1ccc(Cl)cn1)C(=NC#N)NC1C2CC3CC1CC(C(N)=O)(C3)C2` (centres unmarked) [Example 75, (E)-4-({(1E)-2-[(5-chloropyridin-2-yl)oxy]-N-cyano-2-methylpropanimidoyl}amino)adamantane-1-carboxamide] the Ki was 10 to 100 nM.
`CC(C)(Oc1ccccc1)/C(=N\C#N)N[C@@H]1[C@@H]2C[C@@H]3C[C@H]1C[C@@](C(N)=O)(C3)C2` [Example 50, (E)-4-{[(1E)-N-cyano-2-methyl-2-phenoxypropanimidoyl]amino}adamantane-1-carboxamide] gave a Ki of at most 10 nM.
Compound `CC(C)(Oc1ccccc1)C(=NC#N)NC12CCC(C(=O)O)(CC1)CC2` [Example 87, 4-{[N-cyano-2-methyl-2-phenoxypropanimidoyl]amino}bicyclo[2.2.2]octane-1-carboxylic acid] has a Ki of over 1000 nM.
`CC(C)(Oc1ccccc1)C(=NC#N)NC1C2CC3CC1CC(O)(C3)C2` (centres unmarked) [Example 49, (1E)-N′-cyano-N-[(E)-5-hydroxyadamantan-2-yl]-2-methyl-2-phenoxypropanimidamide] was tested, and the Ki was 10 to 100 nM.
For `CC(C)(Oc1ccc(Cl)cc1)C(=NC#N)NC1CC2CCC1C2` (stereo not drawn) [Example 42, N-[exo-Bicyclo[2.2.1]hept-2-yl]-2-(4-chlorophenoxy)-N′-cyano-2-methylpropanimidamide], the Ki was 100 to 1000 nM.
For `N#CN=C(NC1C2CC3CC1CC(O)(C3)C2)C1(c2ccc(Cl)cc2)CCC1` (centres unmarked) [Example 3, 1-(4-Chlorophenyl)-N′-cyano-N-[(E)-5-hydroxy-2-adamantyl]cyclobutanecarboximidamide], the Ki was over 1000 nM.
For `CC(C)(Cc1ccc(Cl)cc1)C(=NC#N)NC1C2CC3CC1CC(O)(C3)C2` (centres unmarked) [Example 23, (1E)-3-(4-Chlorophenyl)-N′-cyano-N-[(E)-5-hydroxy-2-adamantyl]-2,2-dimethyl propanimidamide], the Ki was 100 to 1000 nM.
`CC(C)(Oc1ccc(F)cc1Cl)/C(=N\C#N)NC1C2CC3CC1CC(S(C)(=O)=O)(C3)C2` (centres unmarked) [Example 18, (1E)-2-(2-Chloro-4-fluorophenoxy)-N-cyano-2-methyl-N-[(E)-5-(methylsulfonyl)-2-adamantyl]propanimidamide] showed a Ki of 10 to 100 nM.
In the case of `CC(C)(Oc1ccc(Cl)cn1)/C(=N\C#N)N[C@@H]1[C@@H]2C[C@@H]3C[C@H]1C[C@@](O)(C3)C2` [Example 58, (1E)-2-[(5-chloropyridin-2-yl)oxy]-N′-cyano-N-[(E)-5-hydroxyadamantan-2-yl]-2-methylpropanimidamide], the Ki is reported as 100 to 1000 nM.
Work on `CC(C)(Oc1ccc(Cl)cc1)C(=NC#N)NC12CC3CC(CC(C3)C1)C2` [Example 43] yielded a Ki of 10 to 100 nM.
Compound `N#CN=C(Cc1cccnc1Cl)NC1C2CC3CC1CC(O)(C3)C2` (centres unmarked) [Example 6, (1E)-2-(2-Chloropyridin-3-yl)-N′-cyano-N-[(E)-5-hydroxy-2-adamantyl]ethanimidamide] has a Ki of over 1000 nM.
Work on `CC(C)(Oc1ccc(Cl)cc1)C(=S)NC1C2CC3CC1CC(S(C)(=O)=O)(C3)C2` (centres unmarked) [Example 9, 2-(4-Chlorophenoxy)-2-methyl-N-[(E)-5-(methylsulfonyl)-2-adamantyl]propanethioamide] yielded a Ki of 10 to 100 nM.
`CC(C)(/C(=N\C#N)N[C@@H]1[C@@H]2C[C@@H]3C[C@H]1C[C@@](C(=O)O)(C3)C2)N1CCN(c2ccc(C(F)(F)F)cn2)CC1` [Example 30, (E)-4-[((1E)-N-Cyano-2-methyl-2-{4-[5-(trifluoromethyl)pyridin-2-yl]piperazin-1-yl}propanimidoyl)amino]adamantane-1-carboxylic acid] showed a Ki of over 1000 nM.
Work on `CC(C)(Oc1ccc(Cl)cn1)C(=NC#N)NC1C2CC3CC1CC(S(N)(=O)=O)(C3)C2` (centres unmarked) [Example 68, (1E)-2-[(5-chloropyridin-2-yl)oxy]-N-cyano-2-methyl-N-[(E)-5-sulfamoyladamantan-2-yl]propanimidamide] yielded a Ki of over 1000 nM.
For `COC(=O)C12CC3CC(C1)C(NC(=NC#N)C(C)(C)OCc1ccc(C(F)(F)F)cc1)C(C3)C2` (centres unmarked) [Example 17, Methyl(E)-4-[((1E)-N-cyano-2-methyl-2-{[4-(trifluoromethyl)benzyl]oxy}propanimidoyl)amino]adamantane-1-carboxylate], the Ki was 100 to 1000 nM.
`CC(C)(Oc1ccc(F)cc1F)C(=NC#N)NC1C2CC3CC1CC(C(N)=O)(C3)C2` (centres unmarked) [Example 70, (E)-4-{[(1E)-N-cyano-2-(2,4-difluorophenoxy)-2-methylpropanimidoyl]amino}adamantane-1-carboxamide] was tested, and the Ki was at most 10 nM.
`COC(=O)C12CC3CC(C1)C(NC(=S)C(C)(C)OCc1ccc(C(F)(F)F)cc1)C(C3)C2` (centres unmarked) [Example 16, Methyl(E)-4-[(2-methyl-2-{[4-(trifluoromethyl)benzyl]oxy}propanethioyl)amino]adamantane-1-carboxylate] was tested, and the Ki was 100 to 1000 nM.
Work on `CC(C)(Oc1ccc(Cl)cc1)C(=NC#N)NC1CN2CCC1CC2` (centres unmarked) [Example 40, N-1-Azabicyclo[2.2.2]oct-3-yl-2-(4-chlorophenoxy)-N′-cyano-2-methylpropanimidamide] yielded a Ki of over 1000 nM.
Compound `N#C/N=C(\Cc1ccccc1F)N[C@@H]1[C@@H]2C[C@@H]3C[C@H]1C[C@@](O)(C3)C2` [Example 5, (1E)-N′-Cyano-2-(2-fluorophenyl)-N-[(E)-5-hydroxy-2-adamantyl]ethanimidamide] has a Ki of over 1000 nM.
`CC(C)(Oc1ccc(Cl)cc1F)/C(=N\C#N)NC1CN2CCC1CC2` (centres unmarked) [Example 72, (1E)-N-(1-azabicyclo[2.2.2]oct-3-yl)-2-(4-chloro-2-fluorophenoxy)-N′-cyano-2-methylpropanimidamide] gave a Ki of over 1000 nM.
`CC(C)(Oc1ccc(F)cc1F)C(=NC#N)NC1CC2CCC1C2` (stereo not drawn) [Example 56, N-[(exo)-bicyclo[2.2.1]hept-2-yl]-N-cyano-2-(2,4-difluorophenoxy)-2-methylpropanimidamide] was tested, and the Ki was at most 10 nM.
For `CC(C)(Oc1ccc(Cl)cc1F)C(=NC#N)NC12CC3CC(CC1C3)C2` [Example 73, 2-(4-chloro-2-fluorophenoxy)-Y-cyano-N-(hexahydro-2,5-methanopentalen-3a(1H)-yl)-2-methylpropanimidamide], the Ki was 100 to 1000 nM.
For `COC(=O)C12CC3CC(C1)C(NC(=S)C(C)(C)N1CCN(c4ccc(C(F)(F)F)cn4)CC1)C(C3)C2` (centres unmarked) [Example 21, Methyl(E)-4-[(2-methyl-2-{4-[5-(trifluoromethyl)pyridin-2-yl]piperazin-1-yl}propanethioyl)amino]adamantane-1-carboxylate], the Ki was 10 to 100 nM.
